The values below come from ChEMBL document CHEMBL3526079, “Glutaredoxin is involved in the formation of the pharmacologically active metabolite of clopidogrel from its GSH conjugate” (Drug Metab Dispos, 2012).

Data set [1] concerns Liver cytosol. The experiment in a line: Drug metabolism in human liver cytosol assessed as (E)-2-(1-((S)-1-(2-chlorophenyl)-2-methoxy-2-oxoethyl)-4-mercaptopiperidin-3-ylidene)acetic acid formation at 1 uM for 2.5 mins by LC-MS/MS analysis in presence of 5 mM GSH and 19 to 300 ug/ml anti-human glutaredoxin antibody. Type of data set: ADME.
A short description of data set [2]: Activity of human recombinant glutaredoxin assessed as enzyme-mediated (E)-2-(1-((S)-1-(2-chlorophenyl)-2-methoxy-2-oxoethyl)-4-mercaptopiperidin-3-ylidene)acetic acid formation at 1 uM for 2.5 mins by LC-MS/MS analysis in presence of 5 mM GSH and 19 to 300 ug/ml anti-human glutaredoxin antibody. Type of data set: ADME.
Data set [3] can be described thus: Activity of human recombinant glutaredoxin assessed as enzyme-mediated (E)-2-(1-((S)-1-(2-chlorophenyl)-2-methoxy-2-oxoethyl)-4-mercaptopiperidin-3-ylidene)acetic acid formation. Type of data set: ADME.
Data set [4] can be described thus: Activity of human recombinant glutaredoxin assessed as enzyme-mediated (E)-2-(1-((S)-1-(2-chlorophenyl)-2-methoxy-2-oxoethyl)-4-mercaptopiperidin-3-ylidene)acetic acid formation per ug of protein. Type of data set: ADME.
A short description of data set [5]: Activity of human recombinant glutaredoxin assessed as intrinsic clearance of enzyme-mediated (E)-2-(1-((S)-1-(2-chlorophenyl)-2-methoxy-2-oxoethyl)-4-mercaptopiperidin-3-ylidene)acetic acid formation per ug of protein. Type of data set: ADME.
Data set [6] in a line: Activity of human recombinant glutaredoxin assessed as intrinsic clearance of enzyme-mediated (E)-2-(1-((S)-1-(2-chlorophenyl)-2-methoxy-2-oxoethyl)-4-mercaptopiperidin-3-ylidene)acetic acid formation per pmol of protein. Type of data set: ADME.
Data set [7] concerns Liver microsome. The experiment in a line: Drug level in human liver microsome assessed as compound formation treated with R-115991 at 5 uM by LC-MS/MS analysis in presence of 5 mM GSH. The conditions noted are these: microsomes. Type of data set: ADME. On the technique in general: Liver microsomes are a subcellular fraction often used to study metabolism.
Data set [8] has as its system Liver microsome. The experiment in a line: Drug metabolism in human liver microsome assessed as (E)-2-(1-((S)-1-(2-chlorophenyl)-2-methoxy-2-oxoethyl)-4-mercaptopiperidin-3-ylidene)acetic acid formation at 1 uM for 2.5 mins by LC-MS/MS analysis in presence of 5 mM GSH and 19 to 300 ug/ml anti-human glutaredoxin antibody. Type of data set: ADME. To be noted: microsomes.

Data set [9] has as its system Liver microsome. The data set is described as follows: Drug level in human liver microsome assessed as compound formation rate measured per mg of protein treated with 1 uM R-361015-SG for 2.5 mins by LC-MS/MS analysis in presence of 5 mM GSH. Type of data set: ADME. To be noted: microsomes.
Data set [10] relates to Liver cytosol. The data set is described as follows: Drug level in human liver cytosol assessed as compound formation rate measured per mg of protein treated with 1 uM R-361015-SG for 2.5 mins by LC-MS/MS analysis in presence of 5 mM GSH. Type of data set: ADME, tissue-based.
The nature of data set [11]: Activity of human recombinant glutaredoxin assessed as enzyme-mediated compound formation rate measured per ug of enzyme at 1 uM for 2.5 mins by LC-MS/MS analysis in presence of 5 mM GSH. Type of data set: ADME.
Data set [12] deals with Liver microsome. The experiment in a line: Drug metabolism in human liver microsome assessed as (2S)-2-amino-5-((2R)-1-(carboxymethylamino)-3-(((E)-3-(carboxymethylene)-1-((S)-1-(2-chlorophenyl)-2-methoxy-2-oxoethyl)piperidin-4-yl)disulfanyl)-1-oxopropan-2-ylamino)-5-oxopentanoic acid formation at 5 uM by LC-MS/MS analysis in presence of 5 mM GSH. Type of data set: ADME. The conditions noted are these: microsomes.

In data set [13] the test system is Liver microsome. The experiment in a line: Drug metabolism in human liver microsome assessed as (E)-2-(1-((S)-1-(2-chlorophenyl)-2-methoxy-2-oxoethyl)-4-mercaptopiperidin-3-ylidene)acetic acid formation at 5 uM by LC-MS/MS analysis in presence of 5 mM GSH. Type of data set: ADME. The conditions noted are these: microsomes.
Data set [14] deals with Liver microsome. The experiment in a line: Drug metabolism in human liver microsome assessed as (2S)-2-amino-5-((2R)-1-(carboxymethylamino)-3-(((E)-3-(carboxymethylene)-1-((S)-1-(2-chlorophenyl)-2-methoxy-2-oxoethyl)piperidin-4-yl)disulfanyl)-1-oxopropan-2-ylamino)-5-oxopentanoic acid formation at 5 uM by LC-MS/MS analysis in presence of 5 mM GSH and 1 mg/ml human liver cytosol. Type of data set: ADME. To be noted: microsomes.

Molecules are shown by their SMILES.

What is called Km is the substrate concentration at which the rate is half of its maximum. For orientation: Vmax means the rate approached at saturating substrate. Take `COC(=O)[C@H](c1ccccc1Cl)N1CCC(SSC[C@H](NC(=O)CC[C@H](N)C(=O)O)C(=O)NCC(=O)O)/C(=C/C(=O)O)C1` (stereo not given in full): the Drug metabolism result is “metabolite_not_detected” in data set [1], “metabolite_not_detected” in data set [2], “metabolite_detected” in data set [7] and “metabolite_not_detected” in data set [8]. The Km in [3] worked out at 30 µM. Further, the Vmax in [4] is reported as 381.6 pmol/min. Besides, in data set [5], the clearance amounted to 12.9 µL/min/µg. The CL in data set [6] was found to be 0.1548 µL/min.

`COC(=O)[C@H](c1ccccc1Cl)N1CCC(S)/C(=C/C(=O)O)C1` (stereo not given in full): the Drug metabolism result in data set [7] is listed as “metabolite_detected”; in data set [9], 508 pmol/min; in data set [10], 2843 pmol/min; in data set [11], 130 pmol/min.

As to `COC(=O)[C@H](c1ccccc1Cl)N1CCC2SC(=O)C=C2C1` (stereo not given in full) [CLOPIDOGREL THIOLACTONE], the Drug metabolism entry in data set [12] is “metabolite_detected”; in data set [13], “metabolite_detected”; in [14] it was “metabolite_not_detected”.
